Tests used:
Format in all cases: in vivo, mouse
[1] = test system: Myelin basic protein (MBP); assay: Myelin basic protein in brain tissue homogenate (ELISA), cuprizone/rapamycin demyelination model; details: compared to the demyelination control, Withaferin A 25 mg/kg, BDMC 12.5 mg/kg, combination 37.5 mg/kg, orally once per day
Source text: (§1) The Eight-week-old male C56BL/6 J mice were selected and randomized into ten animals in each group (Table 1). Demyelination was induced by 0.3% cuprizone in combination with rapamycin (Hilary H S, Kathryn K B, Daniela C P, Priya N, Wendy B M. A New Model of Cuprizone-Mediated Demyelination/Remyelination. Am Society Neurochem. 2014: 1-16). Briefly, groups undergo demyelination by feeding on a diet containing 0.3% cuprizone mixed into Rodent Diet. These mice received additionally intra-peritoneal rapamycin injections 5 days a week with a vehicle solution.
(§2) After 8 weeks of treatment, all cuprizone feedings and all injections of rapamycin was discontinued. The animals were subjected to behavioral analysis and at end of study, brain samples and serum samples were collected for estimation of Molecular and protein biomarkers by ELISA and Immunohistochemistry of brain was assessed for Demyelination/Remyelination.
(§3) Withaferin A or BDMC were administered orally once per day to mouse, for 8 weeks after treatment with Cuprizone and Rapamycin (Table 1). The dose response of BDMC or Withaferin was assessed by measuring concentration of biomarkers, Myelin Oligodendrocyte Glycoprotein (MOG) (FIG. 1) Brain Derived Neurotrophic Factor (BDNF) (FIG. 2), in serum. […]

[2] = test system: Platelet Derived Growth Factor Receptor alpha (PDGFRa); assay: PDGFRa in brain tissue homogenate (ELISA), cuprizone/rapamycin demyelination model; details: compared to the demyelination control, Withaferin A 25 mg/kg, BDMC 12.5 mg/kg, combination 37.5 mg/kg, orally once per day
Source text: as §1, §2, §3

[3] = test system: Chondroitin Sulfate Proteoglycan 4 (NG2); assay: NG2 in brain tissue homogenate (ELISA), cuprizone/rapamycin demyelination model; details: compared to the demyelination control, Withaferin A 25 mg/kg, BDMC 12.5 mg/kg, combination 37.5 mg/kg, orally once per day
Source text: as §1, §2, §3

[4] = test system: Transient receptor potential ankyrin 1 (TRPA1); assay: TRPA1 in brain tissue homogenate (ELISA), cuprizone/rapamycin demyelination model; details: compared to the demyelination control, Withaferin A 25 mg/kg, BDMC 12.5 mg/kg, combination 37.5 mg/kg, orally once per day
Source text: as §1, §2, §3

[5] = test system: Amphoterin-induced protein 3 (AMIGO3); assay: AMIGO3 in brain tissue homogenate (ELISA), cuprizone/rapamycin demyelination model; details: compared to the demyelination control, Withaferin A 25 mg/kg, BDMC 12.5 mg/kg, combination 37.5 mg/kg, orally once per day
Source text: as §1, §2, §3

C-reactive Protein (CRP) = assay: C-reactive protein (ELISA), cuprizone/rapamycin demyelination model; details: compared to the demyelination control, Withaferin A 25 mg/kg, BDMC 12.5 mg/kg, combination 37.5 mg/kg, orally once per day
Source text: as §1, §2, §3

[6] = test system: CXC chemokine receptor 2 (CXCR2); assay: CXCR2 in brain tissue homogenate (ELISA), cuprizone/rapamycin demyelination model; details: compared to the demyelination control, Withaferin A 25 mg/kg, BDMC 12.5 mg/kg, combination 37.5 mg/kg, orally once per day
Source text: as §1, §2, §3

C56BL/6 J mice [7] = assay: Motor coordination and learning: Rotarod test in demyelinated mice; details: Rotarod 16 rpm, 60 s, Withaferin A 25 mg/kg, BDMC 12.5 mg/kg, combination 25 + 12.5 mg/kg, demyelinated control 3/10
Source text: as §1, §2
Motor coordination and balance were evaluated in a Rotarod apparatus which consists of a motor-driven rotating rod whose speed can be adjusted. All mice were evaluated on the Rotarod three times a day for two consecutive days, with the rotation set at 15 to 16 revolutions per minute (rpm) (Rozas, G.; Guerra, M. J.; Labandeira Garcia, J. L. An automated Rotarod method for quantitative drug-free evaluation of overall motor deficits in rat models of Parkinsonism. Brain Res. Protoc. 1997, 2, 75-84). To test the performance, the mice were placed on the rotating cylinder at an angle of 45 with an initial rotation speed of 16 rpm, and were allowed to run for 60 s. The trial was repeated after 5-10 min. The falls and flips (when the animal hangs on to the cylinder and continues all the way around) were recorded within 60 s of each trial.

C56BL/6 J mice [8] = assay: Grip strength test in demyelinated mice; details: forelimb strength, compared to the demyelinated control; Withaferin A 25 mg/kg, BDMC 12.5 mg/kg, combination 37.5 mg/kg
Source text: as §1, §2

C56BL/6 J mice [9] = assay: Locomotor activity test (Actophotometer) in demyelinated mice; details: 5 minutes, p.o., Mean ± S.E., 10 animals; for locomotor activity score, 3 hr after treatment: demyelinated control 148 ± 14.48; for locomotor activity score, 2 hr after treatment: demyelinated control 158 ± 14.02; for locomotor activity score, 1 hr after treatment: demyelinated control 170 ± 20.18
Source text: as §1, §2
Actophotometer (Activity cage) is designed to study the spontaneous or induced or locomotor activity in small animals like mice or rats. In this apparatus, the Optical sensors and emitters are present to record the horizontal movements of the animals on a six-digit digital counter display. Each animal was placed in Actophotometer for 5 minutes and basal activity score was recorded for all animals. Each animal was treated with respective drugs and activity score was recorded after 1, 2, and 3 hours.

C56BL/6 J mice [10] = assay: Immunohistochemistry of brain for demyelination/remyelination; details: GST-π staining; Withaferin A 25 mg/kg, BDMC 12.5 mg/kg, combination 37.5 mg/kg; versus demyelinated control
Source text: as §1, §2

[11] = test system: Myelin Oligodendrocyte Glycoprotein (MOG), Brain Derived Neurotrophic Factor (BDNF); assay: Dose response study, MOG and BDNF in serum; details: orally once per day for 8 weeks; from serum MOG and BDNF dose response
Source text: as §1
Withaferin A or BDMC were administered orally once per day to mouse, for 8 weeks after treatment with Cuprizone and Rapamycin (Table 1). The dose response of BDMC or Withaferin was assessed by measuring concentration of biomarkers, Myelin Oligodendrocyte Glycoprotein (MOG) (FIG. 1) Brain Derived Neurotrophic Factor (BDNF) (FIG. 2), in serum.

For `CC1=C(CO)C(=O)O[C@@H]([C@@H](C)[C@H]2CC[C@H]3[C@@H]4C[C@H]5O[C@]56[C@@H](O)C=CC(=O)[C@]6(C)[C@H]4CC[C@]23C)C1` [Withaferin A], the “proliferation of Myelin basic protein (MBP)” value [1] was 64%, the “upregulation of PDGFRa” value [2] was 22% and the “upregulation of NG2” value [3] was 30%. The “down regulation of TRPA1 inflammatory marker” value [4] was 43%, the “down regulation of AMIGO3 inflammatory marker” value [5] was 36% and the “down regulation of C-reactive Protein (CRP) inflammatory marker” value (C-reactive Protein (CRP)) was 32%. For the same compound, the “down regulation of CXC chemokine receptor 2 (CXCR2) inflammatory marker” value [6] was 32%, the “No. of mice which stayed on rota rod/total no. of animals” value (C56BL/6 J mice [7]) was 5 out of 10 and the “No. of mice which stayed on rota rod/total no. of animals” value (C56BL/6 J mice [7]; listed as Withaferin) was 5/10. The “improvement in the grip strength” value (C56BL/6 J mice [8]) was 25%, the “locomotor activity score, 3 hr after treatment” value (C56BL/6 J mice [9]) was 200 ± 9.01 and the “locomotor activity score, 2 hr after treatment” value (C56BL/6 J mice [9]) was 210 ± 17.23. The “locomotor activity score, 1 hr after treatment” value (C56BL/6 J mice [9]) was 240 ± 17.22, the “immunohistochemistry findings of cerebellar cortical layer” value (C56BL/6 J mice [10]) was “few degenerated Purkinje cells with pyknotic cell bodies and inconspicuous dendritic processes” and the optimum effective dose [11] was 25 mg/kg.

`O=C(/C=C/c1ccc(O)cc1)CC(=O)/C=C/c1ccc(O)cc1` [BDMC, Bisdemethoxycurcumin] was tested, and the “proliferation of Myelin basic protein (MBP)” value [1] was 122%, the “upregulation of PDGFRa” value [2] was 73% and the “upregulation of NG2” value [3] was 90%. For the same compound, the “down regulation of TRPA1 inflammatory marker” value [4] was 17%, the “down regulation of AMIGO3 inflammatory marker” value [5] was 27% and the “down regulation of C-reactive Protein (CRP) inflammatory marker” value (C-reactive Protein (CRP)) was 35%. For the same compound, the “down regulation of CXC chemokine receptor 2 (CXCR2) inflammatory marker” value [6] was 35%, the “No. of mice which stayed on rota rod/total no. of animals” value (C56BL/6 J mice [7]) was 5/10 and the “improvement in the grip strength” value (C56BL/6 J mice [8]) was 37.5%. For the same compound, the “locomotor activity score, 3 hr after treatment” value (C56BL/6 J mice [9]) was 190 ± 7.35, the “locomotor activity score, 2 hr after treatment” value (C56BL/6 J mice [9]) was 200 ± 10.70 and the “locomotor activity score, 1 hr after treatment” value (C56BL/6 J mice [9]) was 220 ± 21.11. The optimum effective dose [11] was 12.5 mg/kg.

— patent US20230201134A1, “COMPOSITIONS FOR THE MANAGEMENT OF DEMYELINATING DISORDERS” (priority 2021, published 2023)
